Data taken from US11787825B2 (priority 2021, dated 2023).
In brackets after ≈: the same amount, converted by molar mass. Like-named read-outs stand apart in the source and are kept apart here.

Experiments:
[1] = Beagle, in vivo, po, pH 2
physchem = conditions: 25 °C, thermodynamic from solid
[2] = 0.1N HCL, 1.0% DMSO, 24-hour incubation at ambient temperature, maximum theoretical compound concentration 100 μM
[3] = 1×PBS buffer (pH 7.4), 1.0% DMSO, 24-hour incubation at ambient temperature, maximum theoretical compound concentration 100 μM
[4] = fasted state simulated intestinal fluid (FaSSIF), fassif
[5] = fed state simulated intestinal fluid (FeSSIF), fessif

SMILES | Dog F % (suspension) [1] | pH 2 solubility [2] | pH 7 solubility [3] | solubility (physchem; [4]) | solubility (physchem; [5]) | pH 2 solubility (pH 2) | pH 7 solubility (pH 7.4) | solubility (physchem; fassif) | solubility (physchem; fessif)
CC(C)(C#Cc1ccc(-c2ccc(Cl)c3c(N(C(=O)/C=C/C(=O)N(CCC(=O)O)[C@@H](CC(=O)O)C(=O)O)S(C)(=O)=O)nn(CC(F)(F)F)c23)c([C@H](Cc2cc(F)cc(F)c2)NC(=O)Cn2nc(C(F)(F)F)c3c2C(F)(F)[C@@H]2C[C@H]32)n1)S(C)(=O)=O [Compound 3, N-(2-carboxyethyl)-N—((E)-4-(N-(4-chloro-7-(2-((S)-1-(2-((3bS,4aR)-5,5-difluoro-3-(trifluoromethyl)-3b,4,4a,5-tetrahydro-111-cyclopropa[3,4]cyclopenta[1,2-c]pyrazol-1-yl)acetamido)-2-(3,5-difluorophenyl)ethyl)-6-(3-methyl-3-(methylsulfonyl)but-1-yn-1-yl)pyridin-3-yl)-1-(2,2,2-trifluoroethyl)-1H-indazol-3-yl)methylsulfonamido)-4-oxobut-2-enoyl)-L-aspartic acid] | 10% | – | – | – | – | – | – | – | –
CC(C)(C#Cc1ccc(-c2ccc(Cl)c3c(N(C(=O)CC4(CN(CC(=O)O)C(=O)OCOP(=O)(O)O)CC4)S(C)(=O)=O)nn(CC(F)(F)F)c23)c([C@H](Cc2cc(F)cc(F)c2)NC(=O)Cn2nc(C(F)(F)F)c3c2C(F)(F)[C@@H]2C[C@H]32)n1)S(C)(=O)=O [Compound 39] | – | 1 μM | 87 μM | 1190 µg/mL (≈ 921 µM) | 3870 µg/mL (≈ 3000 µM) | – | – | – | –
CC(C)(C#Cc1ccc(-c2ccc(Cl)c3c(N(C(=O)Cc4ccccc4OP(=O)(O)O)S(C)(=O)=O)nn(CC(F)(F)F)c23)c([C@H](Cc2cc(F)cc(F)c2)NC(=O)Cn2nc(C(F)(F)F)c3c2C(F)(F)[C@@H]2C[C@H]32)n1)S(C)(=O)=O [Compound 45, 2-(2-(N-(4-chloro-7-(2-((S)-1-(2-((3bS,4aR)-5,5-difluoro-3-(trifluoromethyl)-3b,4,4a,5-tetrahydro-1H-cyclopropa[3,4]cyclopenta[1,2-c]pyrazol-1-yl)acetamido)-2-(3,5-difluorophenyl)ethyl)-6-(3-methyl-3-(methylsulfonyl)but-1-yn-1-yl)pyridin-3-yl)-1-(2,2,2-trifluoroethyl)-1H-indazol-3-yl)methylsulfonamido)-2-oxoethyl)phenyl dihydrogen phosphate] | – | – | – | – | – | 1/1 μM | 1/1 μM | 456 µg/mL | 129 µg/mL
CC(C)(C#Cc1ccc(-c2ccc(Cl)c3c(N(C(=O)Cc4ccc(OP(=O)(O)O)cc4)S(C)(=O)=O)nn(CC(F)(F)F)c23)c([C@H](Cc2cc(F)cc(F)c2)NC(=O)Cn2nc(C(F)(F)F)c3c2C(F)(F)[C@@H]2C[C@H]32)n1)S(C)(=O)=O [Compound 51, 4-(2-(N-(4-chloro-7-(2-((S)-1-(2-((3bS,4aR)-5,5-difluoro (trifluoromethyl)-3b,4,4a,5-tetrahydro-1H-cyclopropa[3,4]cyclopenta[1,2-c]pyrazolyl)acetamido)-2-(3,5-difluorophenyl)ethyl)-6-(3-methyl-3-(methylsulfonyl)but-1-ynyl)pyridin-3-yl)-1-(2,2,2-trifluoroethyl)-1H-indazol-3-yl)methylsulfonamido)oxoethyl)phenyl dihydrogen phosphate] | – | – | – | – | – | 1/100 μM | 1/100 μM | 1750 µg/mL | 1450 µg/mL
CN(C(=O)N(c1nn(CC(F)(F)F)c2c(-c3ccc(C#CC(C)(C)S(C)(=O)=O)nc3[C@H](Cc3cc(F)cc(F)c3)NC(=O)Cn3nc(C(F)(F)F)c4c3C(F)(F)[C@@H]3C[C@H]43)ccc(Cl)c12)S(C)(=O)=O)c1ccccc1OP(=O)(O)O [Compound 54, 2-(3-(4-chloro-7-(2-((S)-1-(2-((3bS,4aR)-5,5-difluoro-3-(trifluoromethyl)-3b,4,4a,5-tetrahydro-1H-cyclopropa[3,4]cyclopenta[1,2-c]pyrazol-1-yl)acetamido)-2-(3,5-difluorophenyl)ethyl)-6-(3-methyl-3-(methylsulfonyl)but-1-yn-1-yl)pyridin-3-yl)-1-(2,2,2-trifluoroethyl)-1H-indazol-3-yl)-1-methyl-3-(methylsulfonyl)ureido)phenyl dihydrogen phosphate] | – | – | – | – | – | 1/63 μM | 1/63 μM | 1090 µg/mL | 561 µg/mL
Cc1cc(CP(=O)(O)O)cc(OP(=O)(O)O)c1C(C)(C)CC(=O)N(c1nn(CC(F)(F)F)c2c(-c3ccc(C#CC(C)(C)S(C)(=O)=O)nc3[C@H](Cc3cc(F)cc(F)c3)NC(=O)Cn3nc(C(F)(F)F)c4c3C(F)(F)[C@@H]3C[C@H]43)ccc(Cl)c12)S(C)(=O)=O [Compound 56, (4-(4-(N-(4-chloro-7-(2-((S)-1-(2-((3bS,4aR)-5,5-difluoro-3-(trifluoromethyl)-3b,4,4a,5-tetrahydro-1H-cyclopropa[3,4]cyclopenta[1,2-c]pyrazolyl)acetamido)-2-(3,5-difluorophenyl)ethyl)-6-(3-methyl-3-(methylsulfonyl)but-1-ynyl)pyridin-3-yl)-1-(2,2,2-trifluoroethyl)-1H-indazol-3-yl)methylsulfonamido)-2-methyloxobutan-2-yl)-3-methyl-5-(phosphonooxy)benzyl)phosphonic acid] | – | – | – | – | – | 1/100 μM | 1/100 μM | > 10000 µg/mL | –
Cc1cc(P(=O)(O)O)cc(OP(=O)(O)O)c1C(C)(C)CC(=O)N(c1nn(CC(F)(F)F)c2c(-c3ccc(C#CC(C)(C)S(C)(=O)=O)nc3[C@H](Cc3cc(F)cc(F)c3)NC(=O)Cn3nc(C(F)(F)F)c4c3C(F)(F)[C@@H]3C[C@H]43)ccc(Cl)c12)S(C)(=O)=O [Compound 57, (4-(4-(N-(4-Chloro-7-(2-((S)-1-(2-((3bS,4aR)-5,5-difluoro-3-(trifluoromethyl)-3b,4,4a,5-tetrahydro-111-cyclopropa[3,4]cyclopenta[1,2-c]pyrazol-1-yl)acetamido)-2-(3,5-difluorophenyl)ethyl)-6-(3-methyl-3-(methylsulfonyl)but-1-yn-1-yl)pyridin-3-yl)-1-(2,2,2-trifluoroethyl)-1H-indazol-3-yl)methylsulfonamido)-2-methyl-4-oxobutan-2-yl)-3-methyl-5-(phosphonooxy)phenyl)phosphonic acid] | – | – | – | – | – | 1/100 μM | 1/100 μM | 7300 µg/mL (≈ 5540 µM) | –
Cc1cc(C(=O)NCP(=O)(O)O)cc(OP(=O)(O)O)c1C(C)(C)CC(=O)N(c1nn(CC(F)(F)F)c2c(-c3ccc(C#CC(C)(C)S(C)(=O)=O)nc3[C@H](Cc3cc(F)cc(F)c3)NC(=O)Cn3nc(C(F)(F)F)c4c3C(F)(F)[C@@H]3C[C@H]43)ccc(Cl)c12)S(C)(=O)=O [Compound 60, ((4-(4-(N-(4-chloro-7-(2-((S)-1-(2-((3bS,4aR)-5,5-difluoro-3-(trifluoromethyl)-3b,4,4a,5-tetrahydro-1H-cyclopropa[3,4]cyclopenta[1,2-c]pyrazol-1-yl)acetamido)-2-(3,5-difluorophenyl)ethyl)-6-(3-methyl-3-(methylsulfonyl)but-1-yn-1-yl)pyridin-3-yl)-1-(2,2,2-trifluoroethyl)-1H-indazol-3-yl)methylsulfonamido)-2-methyl-4-oxobutan-2-yl)-3-methyl-5-(phosphonooxy)benzamido)methyl)phosphonic acid] | – | – | – | – | – | 1/64 μM | 1/64 μM | > 10000 µg/mL | –
Cc1cc(CC(=O)NCP(=O)(O)O)c(C(C)(C)CC(=O)N(c2nn(CC(F)(F)F)c3c(-c4ccc(C#CC(C)(C)S(C)(=O)=O)nc4[C@H](Cc4cc(F)cc(F)c4)NC(=O)Cn4nc(C(F)(F)F)c5c4C(F)(F)[C@@H]4C[C@H]54)ccc(Cl)c23)S(C)(=O)=O)c(OP(=O)(O)O)c1 [Compound 61, ((2-(2-(4-(N-(4-chloro-7-(2-((S)-1-(2-((3bS,4aR)-5,5-difluoro-3-(trifluoromethyl)-3b,4,4a,5-tetrahydro-1H-cyclopropa[3,4]cyclopenta[1,2-c]pyrazol-1-yl)acetamido)-2-(3,5-difluorophenyl)ethyl)-6-(3-methyl-3-(methylsulfonyl)but-1-yn-1-yl)pyridin-3-yl)-1-(2,2,2-trifluoroethyl)-1H-indazol-3-yl)methylsulfonamido)-2-methyl-4-oxobutan-2-yl)-5-methyl-3-(phosphonooxy)phenyl)acetamido)methyl)phosphonic acid] | – | – | – | – | – | 2/70 μM | 2/70 μM | > 10000 µg/mL | –
Cc1cc(C(=O)N[C@@H](CC(=O)O)C(=O)O)cc(OP(=O)(O)O)c1C(C)(C)CC(=O)N(c1nn(CC(F)(F)F)c2c(-c3ccc(C#CC(C)(C)S(C)(=O)=O)nc3[C@H](Cc3cc(F)cc(F)c3)NC(=O)Cn3nc(C(F)(F)F)c4c3C(F)(F)[C@@H]3C[C@H]43)ccc(Cl)c12)S(C)(=O)=O [Compound 65, (4-(4-(N-(4-chloro-7-(2-((S)-1-(2-((3bS,4aR)-5,5-difluoro-3-(trifluoromethyl)-3b,4,4a,5-tetrahydro-1H-cyclopropa[3,4]cyclopenta[1,2-c]pyrazol-1-yl)acetamido)-2-(3,5-difluorophenyl)ethyl)-6-(3-methyl-3-(methylsulfonyl)but-1-yn-1-yl)pyridin-3-yl)-1-(2,2,2-trifluoroethyl)-1H-indazol-3-yl)methylsulfonamido)-2-methyl-4-oxobutan-2-yl)-3-methyl-5-(phosphonooxy)benzoyl)-L-aspartic acid] | – | – | – | – | – | 7/68 μM | 7/68 μM | 1100 µg/mL (≈ 787 µM) | –
CC(C)(C#Cc1ccc(-c2ccc(Cl)c3c(NS(C)(=O)=O)nn(CC(F)(F)F)c23)c([C@H](Cc2cc(F)cc(F)c2)NC(=O)Cn2nc(C(F)(F)F)c3c2C(F)(F)[C@@H]2C[C@H]32)n1)S(C)(=O)=O [Intermediate 5, N—((S)-1-(3-(4-chloro-3-(methylsulfonamido)-1-(2,2,2-trifluoroethyl)-1H-indazol-7-yl)-6-(3-methyl-3-(methylsulfonyl)but-1-yn-1-yl)pyridin-2-yl)-2-(3,5-difluorophenyl)ethyl)-2-((3bS,4aR)-5,5-difluoro-3-(trifluoromethyl)-3b,4,4a,5-tetrahydro-1H-cyclopropa[3,4]cyclopenta[1,2-c]pyrazol-1-yl)acetamide, reference compound] | – | 0.11 μM | 0.32 μM | 4 µg/mL (≈ 4.13 µM) | 4.2 µg/mL (≈ 4.34 µM) | – | – | – | –
